Source: patent publication US20260242353A1, “HETEROARYL DERIVATIVES AS DDRs INHIBITORS” (CHIESI FARMACEUTICI S.P.A., priority 2022, published 2026)

Tests used:
[1] = target: T1, DDR2 (Homo sapiens, UniProt Q16832); test: LanthaScreen Europium Kinase Binding assay, DDR2; conditions: 5 nM DDR2, 10 nM Kinase Tracer 178, 1 h at rt; Ki from IC50 by Cheng-Prusoff; read-out: Ki DDR2
T1 construct: purchased Life Technologies
T1 sequence (Q16832 22-855): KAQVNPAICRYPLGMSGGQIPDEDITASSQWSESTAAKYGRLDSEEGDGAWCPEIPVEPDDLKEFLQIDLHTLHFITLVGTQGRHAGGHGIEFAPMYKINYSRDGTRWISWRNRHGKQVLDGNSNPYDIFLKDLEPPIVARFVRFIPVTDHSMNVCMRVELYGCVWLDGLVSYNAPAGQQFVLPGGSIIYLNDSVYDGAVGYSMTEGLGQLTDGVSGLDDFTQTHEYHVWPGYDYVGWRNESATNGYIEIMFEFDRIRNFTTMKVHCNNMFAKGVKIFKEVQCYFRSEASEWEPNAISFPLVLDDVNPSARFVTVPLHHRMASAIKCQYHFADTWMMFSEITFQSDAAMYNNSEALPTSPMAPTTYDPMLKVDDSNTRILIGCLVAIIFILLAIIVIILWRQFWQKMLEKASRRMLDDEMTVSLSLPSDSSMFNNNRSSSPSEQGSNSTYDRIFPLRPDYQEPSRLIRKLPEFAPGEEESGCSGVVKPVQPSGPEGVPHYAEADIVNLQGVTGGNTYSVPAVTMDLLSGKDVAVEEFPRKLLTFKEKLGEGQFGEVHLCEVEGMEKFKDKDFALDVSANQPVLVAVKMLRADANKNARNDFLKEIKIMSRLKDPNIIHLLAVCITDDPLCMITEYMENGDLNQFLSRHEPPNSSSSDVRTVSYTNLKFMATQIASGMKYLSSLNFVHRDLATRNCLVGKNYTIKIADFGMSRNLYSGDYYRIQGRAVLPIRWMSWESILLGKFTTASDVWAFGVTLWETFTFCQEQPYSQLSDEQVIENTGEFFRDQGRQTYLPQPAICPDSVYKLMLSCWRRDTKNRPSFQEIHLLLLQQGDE
Method: (§1) DDR1 and DDR2 binding assays were performed using Life Technologies LanthaScreen™ Europium Kinase Binding assay. The compounds were incubated with 5 nM DDR1 (Carna Biosciences) or 5 nM DDR2 (Life Technologies) for 1 h at rt in white 384-well OptiPlate (PerkinElmer), containing 20 nM or 10 nM Kinase Tracer 178 respectively and 2 nM Europium labelled anti-GST antibody (Life Technologies) in assay buffer (50 mM HEPES pH 7.5, 10 mM MgCI2, 1 mM EGTA and 0.01% BRIJ35). The ratio of fluorescence emission 665 nm/615 nm after excitation at 340 nm was obtained using the Tecan Spark 20M plate reader. IC50 values were determined in GraphPad Prism 7.0 software, using 4 parameter model: log(inhibitor) vs. response. IC50 values were converted in Ki using the Cheng-Prusoff equation (Ki=IC50/(1+[Tracer]/Kd).

[2] = target: T2, DDR1 (Homo sapiens, UniProt Q08345); test: LanthaScreen Europium Kinase Binding assay, DDR1; conditions: 5 nM DDR1, 20 nM Kinase Tracer 178, 1 h at rt; Ki from IC50 by Cheng-Prusoff; read-out: Ki DDR1
T2 construct: purchased Carna Biosciences
Method: as §1

T2 sequence (Q08345 19-913): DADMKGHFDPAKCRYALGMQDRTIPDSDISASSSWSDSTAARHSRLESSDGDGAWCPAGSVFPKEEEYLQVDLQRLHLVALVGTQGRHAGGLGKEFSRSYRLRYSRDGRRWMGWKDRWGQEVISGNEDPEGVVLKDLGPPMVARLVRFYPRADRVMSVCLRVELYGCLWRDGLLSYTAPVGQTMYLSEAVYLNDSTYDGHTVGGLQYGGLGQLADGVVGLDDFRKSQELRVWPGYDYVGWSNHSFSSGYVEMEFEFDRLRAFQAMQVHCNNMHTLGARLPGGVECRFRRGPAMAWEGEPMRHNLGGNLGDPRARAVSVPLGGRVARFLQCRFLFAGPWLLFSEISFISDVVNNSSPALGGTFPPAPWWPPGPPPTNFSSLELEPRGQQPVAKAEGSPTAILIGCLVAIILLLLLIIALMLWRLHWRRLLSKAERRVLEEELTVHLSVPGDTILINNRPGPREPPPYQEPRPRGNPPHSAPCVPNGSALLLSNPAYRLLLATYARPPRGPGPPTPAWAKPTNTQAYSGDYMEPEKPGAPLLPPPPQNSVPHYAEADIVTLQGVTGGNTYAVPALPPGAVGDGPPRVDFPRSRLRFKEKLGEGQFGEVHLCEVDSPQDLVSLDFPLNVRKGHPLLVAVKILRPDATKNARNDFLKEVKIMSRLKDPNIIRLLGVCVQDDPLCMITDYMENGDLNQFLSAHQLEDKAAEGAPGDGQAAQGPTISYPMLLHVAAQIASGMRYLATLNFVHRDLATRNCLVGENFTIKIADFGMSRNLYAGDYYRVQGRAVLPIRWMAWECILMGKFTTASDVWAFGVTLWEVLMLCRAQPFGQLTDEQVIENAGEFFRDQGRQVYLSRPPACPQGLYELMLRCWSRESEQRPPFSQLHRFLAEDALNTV

| Ki [1] | Ki [2] | SMILES |
| --- | --- | --- |
| 5 to 25 nM | < 5 nM | Cc1ccc(C(=O)Nc2cncc(C(F)(F)F)c2)cc1[C@@H]1CN(c2cncnc2)C[C@H]1CO (racemic) [Example 104, 3-((3R,4S)-3-(4-(hydroxymethyl)-1-(pyrimidin-5-yl)pyrrolidin-3-yl)-4-methyl-N-(5-(trifluoromethyl)pyridin-3-yl)benzamide and 3-((3S,4R)-3-(4-(hydroxymethyl)-1-(pyrimidin-5-yl)pyrrolidin-3-yl)-4-methyl-N-(5-(trifluoromethyl)pyridin-3-yl)benzamide] |
| 5 to 25 nM | < 5 nM | COc1ccc(C(=O)Nc2cncc(C(F)(F)F)c2)cc1C1CCN(c2cncnc2)C1 (racemic) [Example 111, 4-methoxy-3-(1-(pyrimidin-5-yl)pyrrolidin-3-yl)-N-(5-(trifluoromethyl)pyridin-3-yl)benzamide] |
| < 5 nM | < 5 nM | COc1ccc(C(=O)Nc2cncc(C(F)(F)F)c2)cc1C1CCN(c2cncnc2)C1 (single isomer, unassigned) [Example 109, 4-methoxy-3-(1-(pyrimidin-5-yl)pyrrolidin-3-yl)-N-(5-(trifluoromethyl)pyridin-3-yl)benzamide] |
| 5 to 25 nM | < 5 nM | COc1ccc(C(=O)Nc2cncc(C(F)(F)F)c2)cc1C1CCN(c2cnn3cccnc23)C1 (single isomer, unassigned) [Example 114, 4-methoxy-3-(1-(pyrazolo[1,5-a]pyrimidin-3-yl)pyrrolidin-3-yl)-N-(5-(trifluoromethyl)pyridin-3-yl)benzamide] |
| 5 to 25 nM | < 5 nM | NC(=O)c1cc(N2CCC(c3cc(C(=O)Nc4cncc(C(F)(F)F)c4)ccc3OC(F)F)C2)ccn1 (single isomer, unassigned) [Example 119, 4-(3-(2-(difluoromethoxy)-5-((5-(trifluoromethyl)pyridin-3-yl)carbamoyl)phenyl)pyrrolidin-1-yl)picolinamide] |
| < 5 nM | < 5 nM | O=C(Nc1cncc(C(F)(F)F)c1)c1ccc(C(F)F)c(C2CCN(c3cncnc3)C2)c1 (single isomer, unassigned) [Example 121] |
| 5 to 25 nM | < 5 nM | Cc1ccc(C(=O)Nc2cncc(C(F)(F)F)c2)cc1C1CCN(c2cnn3cccnc23)C1 (stereo in doubt) [Example 90, 4-methyl-3-[(3R)-1-pyrazolo[1,5-a]pyrimidin-3-ylpyrrolidin-3-yl]-N-[5-(trifluoromethyl)-3-pyridyl]benzamide] |
| 5 to 25 nM | < 5 nM | Cc1ccc(C(=O)Nc2cncc(C(F)(F)F)c2)cc1[C@H]1CCN(c2cncc(C(N)=O)c2)C1 [Example 2, (R)-5-(3-(2-methyl-5-((5-(trifluoromethyl)pyridin-3-yl)carbamoyl)phenyl)pyrrolidin-1-yl)nicotinamide] |
| 5 to 25 nM | < 5 nM | Cc1ccc(C(=O)Nc2cc(C(C)(C)C)nn2C)cc1[C@@H]1CCN(c2cncc(C(N)=O)c2)C1 [Example 5, (S)-5-(3-(5-((3-(tert-butyl)-1-methyl-1H-pyrazol-5-yl)carbamoyl)-2-methylphenyl)pyrrolidin-1-yl)nicotinamide] |
| < 5 nM | < 5 nM | Cc1ccc(C(=O)Nc2cc(C(C)(C)C)no2)cc1[C@@H]1CCN(c2cncc(C(N)=O)c2)C1 [Example 6, (S)-5-(3-(5-((3-(tert-butyl)isoxazol-5-yl)carbamoyl)-2-methylphenyl)pyrrolidin-1-yl)nicotinamide] |
| 5 to 25 nM | < 5 nM | Cc1ccc(C(=O)Nc2cc(C(C)(C)C)no2)cc1[C@@H]1CCN(c2cncc(C#N)c2)C1 [Example 7, (S)—N-(3-(tert-butyl)isoxazol-5-yl)-3-(1-(5-cyanopyridin-3-yl)pyrrolidin-3-yl)-4-methylbenzamide] |

More lines, now with the values behind:

| SMILES | Ki [1] | Ki [2] |
| --- | --- | --- |
| Cc1ccc(C(=O)Nc2cncc(C(F)(F)F)c2)cc1[C@@H]1CN(c2cncnc2)C[C@H]1O (racemic) [Example 105, 3-((3S,4R)-3-(4-hydroxy-1-(pyrimidin-5-yl)pyrrolidin-3-yl)-4-methyl-N-(5-(trifluoromethyl)pyridin-3-yl)benzamide and 3-((3R,4S)-4-hydroxy-1-(pyrimidin-5-yl)pyrrolidin-3-yl)-4-methyl-N-(5-(trifluoromethyl)pyridin-3-yl)benzamide] | 5 to 25 nM | < 5 nM |
| COc1ccc(C(=O)Nc2cncc(C(F)(F)F)c2)cc1C1CCN(c2cncnc2)C1 (single isomer, unassigned) [Example 110, 4-methoxy-3-(1-(pyrimidin-5-yl)pyrrolidin-3-yl)-N-(5-(trifluoromethyl)pyridin-3-yl)benzamide] | 5 to 25 nM | < 5 nM |
| COc1ccc(C(=O)Nc2cncc(C(F)(F)F)c2)cc1C1CCN(c2cnn3cccnc23)C1 (single isomer, unassigned) [Example 115, 4-methoxy-3-(1-(pyrazolo[1,5-a]pyrimidin-3-yl)pyrrolidin-3-yl)-N-(5-(trifluoromethyl)pyridin-3-yl)benzamide] | 5 to 25 nM | < 5 nM |
| O=C(Nc1cncc(C(F)(F)F)c1)c1ccc(OC(F)F)c(C2CCN(c3cncnc3)C2)c1 (single isomer, unassigned) [Example 116, 4-(difluoromethoxy)-3-(1-(pyrimidin-5-yl)pyrrolidin-3-yl)-N-(5-(trifluoromethyl)pyridin-3-yl)benzamide] | < 5 nM | < 5 nM |
| O=C(Nc1cncc(C(F)(F)F)c1)c1ccc(OC(F)F)c(C2CCN(c3cncnc3)C2)c1 (single isomer, unassigned) [Example 117, 4-(difluoromethoxy)-3-(1-(pyrimidin-5-yl)pyrrolidin-3-yl)-N-(5-(trifluoromethyl)pyridin-3-yl)benzamide] | < 5 nM | < 5 nM |
| NC(=O)c1cc(N2CCC(c3cc(C(=O)Nc4cncc(C(F)(F)F)c4)ccc3OC(F)F)C2)ccn1 (single isomer, unassigned) [Example 118, 4-(3-(2-(difluoromethoxy)-5-((5-(trifluoromethyl)pyridin-3-yl)carbamoyl)phenyl)pyrrolidin-1-yl)picolinamide] | 5 to 25 nM | < 5 nM |
| Cc1ccc(C(=O)Nc2cncc(C(F)(F)F)c2)cc1C1CN(c2cncnc2)CC1O (single isomer, unassigned) [Example 122, 3-(4-hydroxy-1-(pyrimidin-5-yl)pyrrolidin-3-yl)-4-methyl-N-(5-(trifluoromethyl)pyridin-3-yl)benzamide] | 5 to 25 nM | < 5 nM |
| Cc1ccc(C(=O)Nc2cncc(C(F)(F)F)c2)cc1[C@@H]1CCN(c2cncc(C(N)=O)c2)C1 [Example 1, (S)-5-(3-(2-methyl-5-((5-(trifluoromethyl)pyridin-3-yl)carbamoyl)phenyl)pyrrolidin-1-yl)nicotinamide] | < 5 nM | < 5 nM |
| Cc1ccc(C(=O)Nc2cc(C(C)(C)C)n(C)n2)cc1[C@@H]1CCN(c2cncc(C(N)=O)c2)C1 [Example 3, (S)-5-(3-(5-((5-(tert-butyl)-1-methyl-1H-pyrazol-3-yl)carbamoyl)-2-methylphenyl)pyrrolidin-1-yl)nicotinamide] | < 5 nM | < 5 nM |
| Cc1ccc(C(=O)Nc2cc(C(C)(C)C(F)(F)F)on2)cc1[C@@H]1CCN(c2cncc(C(N)=O)c2)C1 [Example 4, (S)-5-(3-(2-methyl-5-((5-(1,1,1-trifluoro-2-methylpropan-2-yl)isoxazol-3-yl)carbamoyl)phenyl)pyrrolidin-1-yl)nicotinamide] | < 5 nM | < 5 nM |
